{"source": "paper PMC8931250", "about": "“A SURF4-to-proteoglycan relay mechanism that mediates the sorting and secretion of a tagged variant of sonic hedgehog” (Proceedings of the National Academy of Sciences of the …, 2022)", "key": {"GST-SURF4^49-60": {"target": "T1, GST-SURF4^49-60 (Homo sapiens, UniProt O15260)", "T1 construct": "SURF4 (49-60) in the same buffer was in the calorimetric cell; made in house; host or cells: Escherichia coli", "assay": "Peptide bead pull down with purified GST-SURF4^49-60 as prey", "type": "binding", "settings": "normalized to CW peptides; n = 3, mean ± SD (values only in Fig. 3O); anti-GST immunoblot; HK buffer pH 7.2, 4 °C", "experimental": "(§1) Immunoprecipitation was performed as described ([27]). Purification of GST-tagged ShhN^25-49 and GST-tagged SURF4^49-60 was performed as described previously ([54]). GST pull down assays were performed as described previously ([54]). Peptide binding assay was performed as described previously ([27]). […]\nin cold KOAc buffer (110 mM KOAc, 2 mM Mg(OAc)2, 20 mM Hepes, pH 7.2). Then cells were permeabilized by 0.03 mg/ml digitonin in KOAc buffer for 6 min at room temperature. The permeabilized cells were washed with cold KOAc buffer. […]\n(§2) Binding assays between Myc- tagged SURF4 or Myc-tagged SURF4ED-AA and HA-tagged ShhN or ShhN∆33- 39 were performed by treating HEK293T cells co -transfected with plasmids encoding the indicated proteins in 1 × PBS containing 2 mM dithiobis[succinimidylpropionate] […] After incubation, the beads were washed 4 times with 1 ml of HK buffer (100 mM KCl, 20 mM Hepes, pH 7.2), and the bound material was analyzed by immunoblotting. […]\n(§3) After incubation, the beads were washed three times with 500 µ l of HKT buffer and twice with 500 µ l of HK buffer, and the bound material was analyzed by immunoblotting. […]\nreaction mixture for 1 h at 4 °C. The beads were washed four times with 500 µ l of HK buffer and analyzed […]\nLabel-free quantitative mass spectrometry […]"}, "SURF4-Myc": {"tested_on": "SURF4-Myc", "assay": "Crosslinking co-IP of SURF4-Myc with HA-tagged cargo", "type": "binding, human", "settings": "HEK293T, 2 mM DSP", "experimental": "as §1\nImmunoprecipitation, protein purification, and binding assay\nImmunoprecipitation of HA-tagged ShhN was performed by incubating 200 µl of 0.5 mg/ml cell lysates from HEK293T cells transfected with ShhN- HA in HKT buffer with 10 μl of compact anti-HA agarose affinity beads with mixing at 4 °C overnight. After incubation, the beads were washed 4 times with 1 ml of HK buffer (100 mM KCl, 20 mM Hepes, pH 7.2), and the bound material was analyzed by Coomassie blue staining and immunoblotting.\nas §2, §3"}, "ShhN-SURF4 interaction": {"tested_on": "ShhN-SURF4 interaction", "assay": "Heparin competition in GST pull down of SURF4-HA by ShhN^25-49-GST", "type": "binding, human", "settings": "n = 3", "experimental": "as §1\nImmunoprecipitation, protein purification, and binding assay […]\nAfter incubation, the beads were washed 4 times with 1 ml of HK buffer (100 mM KCl, 20 mM Hepes, pH 7.2), and the bound material was analyzed by Coomassie blue staining and immunoblotting.\nBinding assays between Myc- tagged SURF4 or Myc-tagged SURF4ED-AA and HA-tagged ShhN or ShhN∆33- 39 were performed by treating HEK293T cells co -transfected with plasmids encoding the indicated proteins in 1 × PBS containing 2 mM dithiobis[succinimidylpropionate] (DSP) and 2 mM CaCl2 at room temperature for 30 min, and then quenched with 25 mM Tris-HCl, pH 7.5. 200 µl of 0.5 mg/ml cell lysates were incubated with 10 μl of compact anti-HA agarose affinity beads with mixing at 4 °C overnight. After incubation, the beads were washed 4 times with 1 ml of HK buffer (100 mM KCl, 20 mM Hepes, pH 7.2), and the bound material was analyzed by immunoblotting. […]\nas §3"}, "CW peptides (KRRHPKKC)": {"target": "T2, CW peptides (KRRHPKKC) ( (human or mouse cDNA cloned))", "T2 construct": "Cardin-Weintraub (CW) motif of Shh, residues 33 to 39 in ShhN; C-terminal cysteine printed after the KRRHPKK motif; In the pull-downs the peptide was covalently linked to thiopyridone Sepharose 6B; also called peptides corresponding to the CW motif; source: synthetic peptide", "T2 peptide": "KRRHPKKC", "assay": "ITC; isothermal titration calorimetry of CW peptides with GST-SURF4^49-60 or GST", "settings": "both partners purified"}}, "data": [{"molecule": "VRRFRYPERPC [peptides corresponding to the first intracellular loop of Frizzled6 (…)]", "values": [{"measurement": "level of GST-SURF4^49-60 bound relative to CW peptides", "setting": "GST-SURF4^49-60", "value": "significantly lower than that bound to the CW peptides"}]}, {"molecule": "ShhN-HA: 3xHA-tagged N-terminal fragment of Shh without the cholesterol modification", "values": [{"measurement": "percentage of SURF4-Myc bound to ShhN-HA vs CW motif-depleted ShhN", "setting": "SURF4-Myc; n = 3", "value": "significantly higher than the percentage of SURF4-Myc that bound to ShhN^Δ33-39-HA"}, {"measurement": "interaction with SURF4 vs IGF2", "setting": "SURF4-Myc; SURF4-Myc, HA beads", "value": "more robustly than IGF2"}]}, {"molecule": "AAAHPAAC [CW(KR-AA), alanine substituted mutant (AAAHPAAC)]", "values": [{"measurement": "level of GST-SURF4^49-60 bound relative to CW peptides", "setting": "GST-SURF4^49-60", "value": "bound more efficiently to the wild-type CW sequence than an alanine substituted mutant"}]}, {"molecule": "heparin", "values": [{"measurement": "inhibition of the interaction between ShhN and SURF4", "setting": "ShhN-SURF4 interaction; GST pull down with ShhN^25-49-GST and SURF4-HA lysate", "value": "inhibited the interaction between ShhN and SURF4 in a concentration-dependent manner"}, {"measurement": "inhibition of the ShhN-SURF4 interaction at pH 6.0", "setting": "ShhN-SURF4 interaction; pH 6.0", "value": "still inhibits the ShhN-SURF4 interaction"}]}, {"molecule": "SEQRDYIDTTWN (domain or fragment, human, UniProt O15260 49-60, looked up, first luminal loop of SURF4, amino acids 49 to 60; also called GST-tagged SURF4^49-60; source: E. coli, purified)", "note": "[GST-SURF4^49-60]", "values": [{"measurement": "Kd", "setting": "CW peptides (KRRHPKKC)", "value": "2350 ± 90", "unit": "nM"}]}]}
